Common to all, as to type: functional
The test system of one assay is Bacillus subtilis. The experiment in a line: Antimicrobial activity against Bacillus subtilis ATCC 23857 assessed as inhibition of microbial growth incubated for 16 hrs under shaking condition by microdilution assay. In general terms: Broth dilution looks for growth in wells or tubes with falling amounts of substance.
Another assay deals with Staphylococcus aureus. Briefly: Antimicrobial activity against Staphylococcus aureus ATCC 51650 assessed as inhibition of microbial growth incubated for 16 hrs under shaking condition by microdilution assay.
The test system of the next assay is Escherichia coli. Briefly: Antimicrobial activity against Escherichia coli ATCC 25922 assessed as inhibition of microbial growth incubated for 16 hrs under shaking condition by microdilution assay.
The next assay relates to Candida albicans. The experiment in a line: Antimicrobial activity against Candida albicans ATCC 10231 assessed as inhibition of microbial growth incubated for 16 hrs under shaking condition by microdilution assay.

Turning to `COc1cc(C)c(-c2cc(OC)cc3cc4c(c(O)c23)C(=O)c2c(O)cc(O)cc2C4(C)C)c(O)c1`, the MIC was 12.5 mg/L in the assay on Bacillus subtilis, 6.3 mg/L with Staphylococcus aureus, greater than 100 mg/L in the assay on Escherichia coli and greater than 100 mg/L with Candida albicans.

For the compound `COc1cc(O)c(-c2cc(O)cc3cc4c(c(O)c23)C(=O)c2c(O)cc(O)cc2C4(C)C)c(C)c1Cl`, the MIC with Bacillus subtilis was 6.3 mg/L; in the assay with Staphylococcus aureus, 6.3 mg/L; with Escherichia coli it was greater than 100 mg/L; with Candida albicans, greater than 100 mg/L.

In the case of `COc1cc(C)c(-c2cc(O)cc3cc4c(c(O)c23)C(=O)c2c(cc(O)c(Cl)c2O)C4(C)C)c(O)c1`, the MIC in the assay on Bacillus subtilis is 12.5 mg/L; in the assay on Staphylococcus aureus it was 12.5 mg/L; in the assay with Escherichia coli, greater than 100 mg/L; with Candida albicans, greater than 100 mg/L.

As for `COc1cc(C)c(-c2cc(O)cc3cc4c(c(O)c23)C(=O)c2c(cc(OC)c(Cl)c2O)C4(C)C)c(O)c1`, the MIC in the assay on Bacillus subtilis is 1.6 mg/L; with Staphylococcus aureus it was 3.1 mg/L; with Escherichia coli, greater than 100 mg/L; in the assay with Candida albicans it was greater than 100 mg/L.

Regarding `COc1cc2c(c(O)c1Cl)C(=O)c1c(cc3cc(O)cc(-c4c(O)cc(OC)c(Br)c4C)c3c1O)C2(C)C`, the MIC with Bacillus subtilis was 1.6 mg/L; in the assay with Staphylococcus aureus, 3.1 mg/L; with Escherichia coli it was greater than 100 mg/L; in the assay with Candida albicans, greater than 100 mg/L.

For `COc1cc(O)c2c(c1)C(C)(C)c1cc3cc(O)cc(-c4c(O)cc(OC)c(Cl)c4C)c3c(O)c1C2=O`, the MIC with Bacillus subtilis was 1.6 mg/L; with Staphylococcus aureus, 3.1 mg/L; with Escherichia coli, greater than 100 mg/L; in the assay on Candida albicans, greater than 100 mg/L.

With `COc1cc(C)c(-c2cc(OC)cc3cc4c(c(O)c23)C(=O)c2c(O)cc(OC)cc2C4(C)C)c(O)c1`, the MIC with Bacillus subtilis, in the assay on Staphylococcus aureus, in the assay on Escherichia coli and in the assay with Candida albicans was greater than 100 mg/L in each case.

For the compound `COc1cc(O)c(-c2cc(O)c(Br)c3cc4c(c(O)c23)C(=O)c2c(O)cc(O)cc2C4(C)C)c(C)c1Br`, the MIC with Bacillus subtilis was 1.6 mg/L; with Staphylococcus aureus, 1.6 mg/L; in the assay on Escherichia coli, greater than 100 mg/L; in the assay with Candida albicans, greater than 100 mg/L.

Take `COc1cc(C)c(-c2cc(O)cc3cc4c(c(O)c23)C(=O)c2c(O)cc(OC)cc2C4(C)C)c(O)c1`: the MIC was 1.6 mg/L with Bacillus subtilis, 3.1 mg/L with Staphylococcus aureus, greater than 100 mg/L with Escherichia coli and greater than 100 mg/L in the assay on Candida albicans.

With `COc1cc(C)c(-c2cc(O)cc3cc4c(c(O)c23)C(=O)c2c(cc(OC)c(Br)c2O)C4(C)C)c(O)c1`, the MIC in the assay with Bacillus subtilis is 3.1 mg/L; in the assay on Staphylococcus aureus, 3.1 mg/L; with Escherichia coli it was greater than 100 mg/L; in the assay on Candida albicans, greater than 100 mg/L.

Turning to `COc1cc(O)c(-c2cc(O)cc3cc4c(c(O)c23)C(=O)c2c(O)cc(O)cc2C4(C)C)c(C)c1Br`, the MIC was 3.1 mg/L with Bacillus subtilis, 3.1 mg/L in the assay on Staphylococcus aureus, greater than 100 mg/L in the assay on Escherichia coli and greater than 100 mg/L in the assay on Candida albicans.

Take `COc1cc(O)c2c(c1)C(C)(C)c1cc3cc(O)cc(-c4c(O)cc(OC)c(Br)c4C)c3c(O)c1C2=O`: the minimal inhibitory concentration (MIC) was 1.6 mg/L in the assay with Bacillus subtilis, 3.1 mg/L in the assay with Staphylococcus aureus, greater than 100 mg/L in the assay on Escherichia coli and greater than 100 mg/L in the assay on Candida albicans.

Regarding `NC[C@H]1O[C@H](O[C@H]2[C@H](O)[C@@H](O[C@H]3O[C@H](CO)[C@@H](O)[C@H](N)[C@H]3O)[C@H](N)C[C@@H]2N)[C@H](O)[C@@H](O)[C@@H]1O` [KANAMYCIN], the MIC with Bacillus subtilis is 0.8 mg/L; in the assay with Staphylococcus aureus, 1.6 mg/L.

One may read the MIC as the least concentration at which growth counts as inhibited.

These data come from ChEMBL document CHEMBL5143641, “Expanding the Chemical Diversity of Fasamycin Via Genome Mining and Biocatalysis” (2022).
